Measured values reported in patent US4032659A (priority 1975, dated 1977).
Where two headings read alike, the source gives them in different places.

What was measured:
[1] = test system: Influenza Ann Arbor virus; test: Chemoprophylaxis of Influenza Ann Arbor (A1) virus infection in mice; assay type: in vivo, mouse
[2] = test system: Influenza PR 8 virus; test: Chemoprophylaxis of Influenza PR 8 virus infection in mice; assay type: in vivo, mouse
[3] = test system: virus infections; test: Antiviral screening program, several viruses; settings: mouse, in vivo
[4] = test system: Influenza B Massachusetts virus; settings: larger doses, different dose schedules; cited from earlier work
[5] = test system: Herpes virus; assay type: in vivo, mouse; settings: oral
[6] = test system: Herpes virus; test: Herpes virus in eggs (chick embryo survival); assay type: in vivo, chicken eggs; settings: for Deaths on day 1 / Deaths on day 3 / Deaths on day 4 / Total Deaths 4th Day / Deaths on day 2: 12 eggs
[7] = test system: Mengo virus; test: Mengo virus infection in mice; assay type: in vivo, mouse; settings: oral
Source text: The results are illustrated in Table 43.

[8] = test system: Vaccinia virus; assay type: in vivo; settings: scarified rabbit skin
[9] = test system: Vaccinia virus; assay type: cell-based, fertile eggs; settings: various concentrations
[10] = test system: Neurovaccinia virus; test: Neurovaccinia (intracerebral) in mice; settings: mouse, in vivo

Structure (SMILES): NC12CC3CC(CC(C3)C1)C2 [Amantadine, amantadine, reference compound]
- tests with survivors (of 18 tests) ([1]; 18 tests): 5
- instances of a statistically significant number of survivors ([2]; 41 tests): one single instance
- instances of increased geometric mean survival time ([2]; 41 tests): 11
- number of survivors in the single significant instance ([2]; 41 tests): 3
- activity (in words) [3]: inactive against all of the other viruses in the test system
- chemoprophylaxis (in words) [4]: ineffective against Influenza B Massachusetts

Structure (SMILES): NNC(N)=S [Thiosemicarbazide, thiosemicarbazide]
- No. animals surviving when 19/20 controls are dead ([5]; total dose 5 μg): 0
- No. animals surviving when 17/20 controls are dead ([5]; total dose .000005 μg): 0
- No. animals surviving when 17/20 controls are dead ([5]; total dose .00005 μg): 3
- Survivors ([5]; total dose .00005 μg): 3
- No. animals surviving after 7 days ([5]; total dose .0005 μg): 6
- No. animals surviving when 17/20 controls are dead ([5]; total dose .0005 μg): 0
- No. animals surviving after 7 days ([5]; total dose .005 μg): 6
- No. animals surviving when 17/20 controls are dead ([5]; total dose .05 μg): 0
- No. Living Longer Than Controls, total ([6]; all doses): 7
- Deaths on day 1 ([6]; dose 2 μg): 3
- Deaths on day 3 ([6]; dose 2 μg): 5
- Deaths on day 4 ([6]; dose 2 μg): 3
- Total Deaths 4th Day ([6]; dose 2 μg): 12
- Deaths on day 2 ([6]; dose 20 μg): 4
- Deaths on day 3 ([6]; dose 20 μg): 6
- Total Deaths 4th Day ([6]; dose 20 μg): 12
- Deaths on day 1 ([6]; dose .00005 μg): 2
- Deaths on day 2 ([6]; dose .00005 μg): 5
- Deaths on day 3 ([6]; dose .00005 μg): 2
- Total Deaths 4th Day ([6]; dose .00005 μg): 10
- Deaths on day 1 ([6]; dose .0005 μg): 2
- Deaths on day 2 ([6]; dose .0005 μg): 3
- Deaths on day 3 ([6]; dose .0005 μg): 2
- Deaths on day 4 ([6]; dose .0005 μg): 3
- Total Deaths 4th Day ([6]; dose .0005 μg): 10
- Deaths on day 1 ([6]; dose .005 μg): 4
- Deaths on day 2 ([6]; dose .005 μg): 3
- Deaths on day 3 ([6]; dose .005 μg): 3
- Total Deaths 4th Day ([6]; dose .005 μg): 10
- Deaths on day 2 ([6]; dose .05 μg): 3
- Deaths on day 3 ([6]; dose .05 μg): 5
- Total Deaths 4th Day ([6]; dose .05 μg): 9
- Deaths on day 1 ([6]; dose .5 μg): 3
- Deaths on day 2 ([6]; dose .5 μg): 4
- Deaths on day 3 ([6]; dose .5 μg): 2
- Deaths on day 4 ([6]; dose .5 μg): 2
- Total Deaths 4th Day ([6]; dose .5 μg): 11
- Survivors ([1]; oral, total dose .5 μg): 0
- protection ([2]; intraperitoneal): almost no protection
- Survivors ([2]; intraperitoneal, total dose 5 μg): 0
- Survivors ([2]; intraperitoneal, total dose .005 μg): 0
- Survivors ([2]; intraperitoneal, total dose .05 μg): 0
- Survivors ([2]; intraperitoneal, total dose .5 μg): 0
- Survivors ([2]; oral, total dose .005 μg): 3
- Survivors ([2]; oral, total dose .5 μg): 0
- Survivors ([2]; subcutaneous, total dose 5 μg): 3
- Survivors ([2]; subcutaneous, total dose .0005 μg): 0
- Survivors ([2]; subcutaneous, total dose .005 μg): 0
- Survivors ([7]; total dose .0000005 μg): 0
- No. animals surviving after 6 days ([7]; total dose .000005 μg): 2
- Survivors ([7]; total dose .000005 μg): 1
- No. animals surviving after 6 days ([7]; total dose .00005 μg): 5
- Survivors ([7]; total dose .00005 μg): 1
- Survivors ([7]; total dose .0005 μg): 0
- Survivors ([7]; total dose .005 μg): 0
- effect on pox formation [8]: highly significant diminution in the vaccinia pox formation
- effect on pox formation on the membrane [9]: No effect on pox formation on the membrane could be observed
- activity (in words) [3]: active against Influenza PR 8, Vaccinia in the mouse tail, Mengo virus, Herpes virus in mice and eggs, Influenza virus, and Vaccinia virus in rabbits
- surviving animals (three instances, single dose level) [10]: one
